Data taken from patent US20160113890A1, “COMPOSITION FOR STIMULATING NEOVASCULARIZATION AT A SITE IN A SUBJECT COMPRISING DAPSONE AND USE THEREOF” (Samsung Electronics Co., Ltd., priority 2014, published 2016).

Experiments:
VEGFR2 = assay: Phosphorylation-specific antibody array of soleus muscle protein; type: in vivo, mouse; conditions: 20 month-old C57BL/6J mice, 2.0 mg/kg/d for 3 months
Method: In FIG. 10, a vertical axis denotes the amount of protein expressed in the experimental group compared to the control group (fluorescent intensity: arbitrary unit), and a horizontal axis denotes the type of phosphorylated protein measured, where the description in parentheses informs residue and location of the phosphorylated amino acid. […] The microarray analysis was performed by using a Phospho Explorer Antibody array (1312 antibodies, FULL MOON Biosystems), soleus muscle of the mice was obtained, protein was isolated therefrom, and used for the microarray analysis. In FIG. 10, p-VR1 and p-VR2 respectively denote phosphorylated VEGFR1 and VEGFR2.

C57BL/6 mice [1] = assay: Fluorescein-lectin tracking and immunohistochemical assay on pancreas section; type: in vivo, mouse; conditions: old mice, 2.0 mg/kg/d for 3 months
Method: (§1) C57BL/6 mice (hereinafter, also referred to as “B6”) at ages of 7 months and 24 months (female n=18, male n=12, Korean Basic Science Institute) were maintained according to the guideline of the Laboratory Animal Research Center of Sungkyunkwan University School of Medicine. The mice were allowed to have free access to water and feed. Each group of mice (n=5) drank 0.0, 0.5, or 2.0 mg/kg/day of dapsone (available from Tai Guk Pharm. Co.) for 3 months.
(§2) After 3 months, ear skin from both ears, trachea, both retinas, both kidneys, and pancreas were obtained from a mouse selected from each group of mice. In order to obtain these organs, the mouse was anesthetized by intraperitoneal injection of 100 mg/kg of […] (Entobal®) based on the weight of the mouse, […] of 1% paraformaldehyde was flowed through the heart to remove the blood in the body of the mouse. The organs were surgically obtained, and tissue from each of the organs was fixed in 4% of paraformaldehyde for 24 hours to prepare a frozen section having a thickness of 10 um. Immunofluorescence staining using anti-PECAM-1 antibody was performed on a sample of the frozen section. […] The measured fluorescent density denotes a density of endothelial cells, that is, blood vessels. […]

C57BL/6 mice [2] = assay: Fluorescein-lectin tracking and immunohistochemical assay on kidney section; type: in vivo, mouse; conditions: old mice, 2.0 mg/kg/d for 3 months
Method: as §1, §2

C57BL/6 mice [3] = assay: Immunohistochemical assay (anti-PECAM-1) on mouse ear skin whole-mount; type: in vivo
Method: as §1
as §2, with “section. For the immunofluorescence staining, the sample was blocked in a solution containing 5% donkey serum in phosphate buffered solution (PBS) containing 0.3% Triton-X 100 (0.3% PBST) for 1 hour. The anti-PECAM-1 antibody produced from American hamster was added to the solution to allow a primary reaction with antigen of the tissue at 4° C. for 12 hours. The sample was washed 6 times for 10 minutes with 0.3% PBS-T, and an anti-American hamster-Alexa594 antibody was added to 0.3 PBS-T to allow a secondary reaction with the anti-PECAM-1 antibody at 4° C. for 12 hours. The sample was washed 6 times for 10 minutes, attached to a slide glass, and thus image of the stained sample was obtained by a Carl Zeiss LSM710 confocal microscope.” for “section.”

C57BL/6 mice [4] = assay: Immunohistochemical assay (anti-PECAM-1) on trachea whole-mount of mouse; type: in vivo
Method: as §1
After 3 months, ear skin from both ears, trachea, both retinas, both kidneys, and pancreas were obtained from a mouse selected from each group of mice. In order to obtain these organs, the mouse was anesthetized by intraperitoneal injection of 100 mg/kg of […] (Entobal®) based on the weight of the mouse, […] of 1% paraformaldehyde was flowed through the heart to remove the blood in the body of the mouse. The organs were surgically obtained, and tissue from each of the organs was fixed in 4% of paraformaldehyde for 24 hours to prepare a frozen section having a thickness of 10 um. Immunofluorescence staining using anti-PECAM-1 antibody was performed on a sample of the frozen section. For the immunofluorescence staining, the sample was blocked in a solution containing 5% donkey serum in phosphate buffered solution (PBS) containing 0.3% Triton-X 100 (0.3% PBST) for 1 hour. The anti-PECAM-1 antibody produced from American hamster was added to the solution to allow a primary reaction with antigen of the tissue at 4° C. for 12 hours. The sample was washed 6 times for 10 minutes with 0.3% PBS-T, and an anti-American hamster-Alexa594 antibody was added to 0.3 PBS-T to allow a secondary reaction with the anti-PECAM-1 antibody at 4° C. for 12 hours. The sample was washed 6 times for 10 minutes, attached to a slide glass, and thus image of the stained sample was obtained by a Carl Zeiss LSM710 confocal microscope. Each of the images was sequentially taken with respect to the tissue having a thickness in a range of about 100 um to about 300 um as an axis, and then all the sub-images were projected in a z-axis direction. Thus the image is a projection image. Platelet endothelial cell adhesion molecule (PECAM-1) is also referred to as cluster of differentiation 31 (CD31), which is found in platelets or monocytes and on a surface of some types of T-cells, and constitutes most of endothelial cell intercellular junction. […] The measured fluorescent density denotes a density of endothelial cells, that is, blood vessels. Also, in terms of kidney tissue sections and pancreas tissue section, Fluorescein labeled Lycopersicon esculentum (tomato) lectin (hereinafter, also referred to as “Fluorescein-lectin”) was used as a tracer to verify blood vessel functionality of the sample. […]

VEGF = assay: Microarray analysis of gene expression in soleus muscle (VEGF); type: in vivo, mouse; conditions: middle (15 month-old) and old (20 month-old) mice, 2.0 mg/kg/d for 3 months
Method: (§3) In FIG. 9, a vertical axis denotes an expression amount of VEGF or Tie2 gene (fluorescent intensity: arbitrary unit), and a horizontal axis denotes a mouse subject. […] The microarray analysis was performed by using Agilent's Mouse Oligo Microarray (44K, Agilent Technology). 5 months-old, 15 months-old, and 20 months-old C57BL/6J mice had 2 mg/kg/d of dapsone for 3 months. […] After the 3 months, the 8 months-old, 18 months-old, and 23 months-old mice were anesthetized by injecting Entobar (sodium pentobarbital, 100 mg/kg per body weight), and then soleus muscle taken therefrom for microarray analysis was frozen. Ribonucleic acid was isolated from the muscle and used for the microarray analysis.

Tie2 = assay: Microarray analysis of gene expression in soleus muscle (Tie2); type: in vivo, mouse; conditions: middle (15 month-old) and old (20 month-old) mice, 2.0 mg/kg/d for 3 months
Method: as §3

[5] = old mice (27 months-old), 2.0 mg/kg/d for 3 months (O2 vs O0)

Nc1ccc(S(=O)(=O)c2ccc(N)cc2)cc1 [dapsone, 4-[(4-aminobenzene)sulfonyl]aniline]
phosphorylation of VEGFR2 at T1175, T1059 and T1054 vs control group (VEGFR2): significantly increased phosphorylation
amount of blood vessels with decreased functionality (Fluorescein-lectin negative) (C57BL/6 mice [1]): reduced
blood vessel functionality (Fluorescein-lectin perfusion of PECAM-1 positive vessels) (C57BL/6 mice [2]): recovered to the similar level of the control group
blood vessel density (PECAM-1 Alexa 594 fluorescence intensity) vs control group (C57BL/6 mice [3]; [5]): significant difference
blood vessel density (PECAM-1 Alexa 594 fluorescence intensity) vs control group (C57BL/6 mice [3]; young mice (7 months-old), 0.5 mg/kg/d for 3 months (Y0.5 vs Y0)): no significant difference
blood vessel density (PECAM-1 Alexa 594 fluorescence intensity) vs control group (C57BL/6 mice [3]; young mice (7 months-old), 2.0 mg/kg/d for 3 months (Y2 vs Y0)): no significant difference
blood vessel density (PECAM-1 Alexa 594 fluorescence intensity) vs control group (C57BL/6 mice [4]; old mice (27 months-old), 0.5 mg/kg/d for 3 months (O0.5 vs O0)): significant difference
blood vessel density (PECAM-1 Alexa 594 fluorescence intensity) vs control group (C57BL/6 mice [4]; [5]): significant difference
blood vessel density (PECAM-1 Alexa 594 fluorescence intensity) vs control group (C57BL/6 mice [4]; young mice (7 months-old), 0.5 mg/kg/d in drinking water for 3 months (Y0.5 vs Y0)): no significant difference
blood vessel density (PECAM-1 Alexa 594 fluorescence intensity) vs control group (C57BL/6 mice [4]; young mice (7 months-old), 2.0 mg/kg/d in drinking water for 3 months (Y2 vs Y0)): no significant difference
expression of VEGF gene vs control groups (VEGF): increased
level of Tie2 gene expression vs control groups (Tie2): did not change significantly
